Laboratory results published in the supplement of paper PMC3974653.
Structures can show the parent of a compound that is named as a salt.

System: MTT (mouse pheochromocytoma)
Test: IC50 of cell viability (ATP content)
Conditions: (24 or 48 h)
Method in brief: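 The IC50 was fitted with a four-parameter logistic equation to normalised CellTiter-Glo ATP luminescence from MTT mouse pheochromocytoma cells. These cells, in white 1536-well plates, had been treated for 24 or 48 hrs with library compounds at 8 final concentrations between 0.5 nM and 46 µM, and luminescence was read after 15 minutes. Positive-control wells served as 100% and DMSO wells as 0%.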

SMILES | IC50 of cell viability [µM]
CC(C)(O/N=C(\C(=O)N[C@@H]1C(=O)N2C(C(=O)[O-])=C(C[n+]3ccccc3)CS[C@@H]12)c1csc(N)n1)C(=O)O.O.O.O.O.O [Ceftazidime pentahydrate] | > 46
O=C(Cn1cnnn1)N[C@@H]1C(=O)N2C(C(=O)O)=C(CSc3nncs3)CS[C@H]12 [Ceftezole sodium] | > 46
CO/N=C(/C(=O)N[C@@H]1C(=O)N2C(C(=O)O)=C(COC(N)=O)CS[C@H]12)c1ccco1 [Cefuroxime Free Acid] | > 46
Cc1ccc(-c2cc(C(F)(F)F)nn2-c2ccc([S+](N)(=O)[O-])cc2)cc1 [Celecoxib] | > 46
CC(=O)OC[C@H]1O[C@@H](O[C@H]2[C@H](O)[C@@H](OC(=O)c3ccccc3C(=O)O)[C@H](O)O[C@@H]2COC(C)=O)[C@H](O)[C@@H](OC(=O)c2ccccc2C(=O)O)[C@@H]1O [Cellulose Acetate Phthalate] | > 46
CC(=O)OC\C1=C(\[N@]2[C@@H](SC1)[C@H](N)C2=O)C(O)=O [Cephalosporanic acid, 7-amino] | > 46
[Na+].CC(=O)OC\C1=C(\[N@]2[C@@H](SC1)[C@H](NC(=O)CSC3=CC=NC=C3)C2=O)C([O-])=O [Cephapirin sodium salt] | > 46
CC1=C(C(=O)O)N2C(=O)[C@@H](NC(=O)[C@H](N)C3=CCC=CC3)[C@H]2SC1 [Cephradine] | > 46
CNC1(c2ccccc2Cl)CCCCC1=O (stereo not given) [Cetamina] | > 46
O=C(O)COCCN1CCN([C@@H](c2ccccc2)c2ccc(Cl)cc2)CC1 [Cetirizine dihydrochloride] | > 46
[H]C1(CN)CC[C@@]([H])(CC1)C(=O)OC2=CC=C(CCC(O)=O)C=C2 (stereo not given) [Cetraxate hydrochloride] | > 46
C[C@H](CCC(=O)O)[C@@H]1CC[C@H]2[C@@H]3[C@@H](CC[C@@]21C)[C@@]1(C)CC[C@H](O)C[C@@H]1C[C@@H]3O [Chenodiol] | > 46
Cc1ccc(S(=O)(=O)[N-]Cl)cc1.O.O.O.[Na+] [Chloramine T trihydrate] | > 46
CCCCCCCCCCCCCCCC(=O)OCC(NC(=O)C(Cl)Cl)C(O)c1ccc([N+](=O)[O-])cc1 (stereo not given) [Chloramphenicol palmitate] | > 46
O=C(O)CCC(=O)OC[C@@H](NC(=O)C(Cl)Cl)[C@H](O)c1ccc([N+](=O)[O-])cc1 [Chloramphenicol succinate sodium salt] | > 46
O=C(N[C@H](CO)[C@H](O)c1ccc([N+](=O)[O-])cc1)C(Cl)Cl [Chloramphenicol] | > 46
N=C(NCCCCCCNC(=N)NC(=N)Nc1ccc(Cl)cc1)NC(=N)Nc1ccc(Cl)cc1 [Chlorhexidine] | > 46
Oc1ccc(Cl)c2c1CCC2 [Chlorindanol] | > 46
CC(=O)[C@@]1(O)CC[C@H]2[C@@H]3C=C(Cl)C4=CC(=O)CC[C@]4(C)[C@H]3CC[C@@]21C [Chlormadinone] | > 46
CN1C(=O)CC[S+](=O)([O-])C1c1ccc(Cl)cc1 (stereo not given) [Chlormezanone] | > 46
ClC(Cl)Cl [Chloroform] | > 46
CN(C)CCN(Cc1ccc(Cl)cc1)c1ccccn1 [Chloropyramine hydrochloride] | > 46
N[S+]([O-])(=O)C1=C(Cl)C=C2\N=C/N[S+]([O-])(=O)C2=C1 [Chlorothiazide] | > 46
COc1ccc(C(Cl)=C(c2ccc(OC)cc2)c2ccc(OC)cc2)cc1 [Chlorotrianisene] | > 46
Cc1cc(O)cc(C)c1Cl [Chloroxylenol] | > 46
